{"source": "patent US20050272068A1", "about": "“UCH-L1 expression and cancer therapy” (The Brigham and Women's Hospital, Inc., priority 2004, published 2005)", "key": {"UCH-L1 [1]": {"tested_on": "UCH-L1", "assay": "UCH-L1 species in SH-SY5Y cells by 2D electrophoresis and Western blotting (membrane, cytosolic, total)", "assay_type": "cell-based", "protocol": "Membrane fractionation: Cells were harvested by scraping and washed with PBS. Cell pellet was suspended in lysis buffer (50 mM Tris-HCl, 1 mM EDTA) supplemented with protease inhibitor cocktail (Sigma) and homogenized by passing through 26G needles 10 times. Suspension was clarified by spinning at 600 g for 5 minutes. Clarified suspension was ultracentrifuged at 100,000 g for 2 hours and separated into membrane and cytosol. Membrane fraction was washed with washing buffer (50 mM Tris-HCl, 1 mM EDTA 1M NaCl), and pelleted each time with bench-top centrifuge.\n2D electrophoresis: For the isolation of total cellular protein, cultured SH—SY5Y cells maintained as described above were rinsed with ice-cold PBS. Cells were lysed in 1 ml dSDS buffer (50 mM Tris-HCl, pH 8.0 0.1% SDS) supplemented with protease inhibitor cocktail. Lysates were boiled for 3 min, and were treated with Dnase and Rnase as described. Lysates were precipitated with ice-cold acetone for at least 2 hours, and pellets were resuspended in 2D sample buffer (8M urea, 0.5% CHAPS, 0.2% DTT, 0.5% IPG buffer, 0.002% bromophenol blue). 2D electrophoresis was carried out according to manufacture's protocol (Amersham Life Science). 7 cm pH 4-7 strips were used. For SH—SY5Y membrane fraction, culture SH—SY5Y cells were rinsed with cold PBS and harvested with lysis buffer (50 mM Tris-HCl, pH 8.0, 1 mM ZnAc2, 250 mM sucrose). Lysate was passed through 25 G needles for several times and spun at 1000 g for 5 min. Supernatant was centrifuged at 200,000 g for 2 hours. Pellet was extensively washed with lysis buffer and extracted with cold acetone. Pellet was resuspended in 2D sample buffer.\nWestern Blotting: Following transfer of SDS gels onto NC membrane, all membranes were blocked with 5% non-fat milk in TBST (50 mM Tris-HCl pH7.4, 150 mM NaCl, 0.1% Tween 20), and incubated with primary antibody overnight with 1% BSA in TBST, washed three times with TBST, and incubated with horseradish peroxidase-conjugated secondary antibody for 1 hour (Promega). Bound antibodies were detected using enhanced chemiluminascence (NEM). […]"}, "UCH-L1 [2]": {"tested_on": "UCH-L1", "assay": "Pulse-chase experiment, UCH-L1 turnover in SH-SY5Y cells", "assay_type": "cell-based", "conditions": "pulse-chase experiment not shown", "description": "Treatment with FTI-277 reduced the total amount of UCH-L1 in SH—SY5Y cells and increased its rate of turnover (pulse-chase experiment not shown), in addition to reducing the amount of membrane-associated protein."}, "SH-SY5Y cells": {"tested_on": "SH-SY5Y cells", "assay": "alpha-synuclein toxicity in SH-SY5Y cells infected with alpha-synuclein-expressing adenovirus (Trypan blue viable cell counting, MTT assay)", "assay_type": "cell-based", "conditions": "SH-SY5Y cells overexpressing alpha-synuclein via adenoviral vector, compounds for 48 hours, vs DMSO", "protocol": "(§1) Viral Infection: Viral infection and MTT assay in SH—SY5Y cells: The viruses were amplified and purified according to the published procedure. SH—SY5Y cells were grown on 100 mm petri-dishes and induced with 100 nM RA for 3-5 days before the virus infection with M.I.O at 75. Viruses were diluted with DPBS to desired M.I.O. After four hours of incubation, 10 ml growth medium was added. On the second day, cells were splitted into 96-well plates and treated with compounds for next 48 hours. The growth medium in each well was replaced with growth medium with 5 ug/ml MTT. Medium was removed after three hours incubation, and 200 ul isopropyl (0.04N HCl) was added into each well. The signal was read at 570 nm.\nViable cell counting: At stated time poins, SH—SY5Y cells were trypsinized with 100 ul trypsin-EDTA for 1 minute and neutralized with 400 ul growth medium. Cell suspension was made up by mixing 0.2 ml of cells in growth medium, 0.3 ml of HBSS and 0.5 ml of 0.4% Trypan Blue solution. Viable cell numbers were counted by standard cell counting chamber.\nSince α-synuclein neurotoxicity is dose-dependent, it follows that accumulation of α-synuclein, caused by UCH-L1 farnesylation, should promote its toxicity. […] These cells express high endogenous levels of UCH-L1. […] The unit of y-axis is 10^5/ml. (F) Cell viability was assessed by the amount of metabolic activity using MTT assay. […]"}, "α-synuclein [3]": {"tested_on": "α-synuclein", "assay": "Amount of alpha-synuclein in infected SH-SY5Y cells by Western blotting", "assay_type": "cell-based", "conditions": "SH-SY5Y cells infected with alpha-synuclein-expressing adenovirus, normalized against actin", "protocol": "as §1\nWestern Blotting: Following transfer of SDS gels onto NC membrane, all membranes were blocked with 5% non-fat milk in TBST (50 mM Tris-HCl pH7.4, 150 mM NaCl, 0.1% Tween 20), and incubated with primary antibody overnight with 1% BSA in TBST, washed three times with TBST, and incubated with horseradish peroxidase-conjugated secondary antibody for 1 hour (Promega). Bound antibodies were detected using enhanced chemiluminascence (NEM).\nSince α-synuclein neurotoxicity is dose-dependent, it follows that accumulation of α-synuclein, caused by UCH-L1 farnesylation, should promote its toxicity. […] (F) Cell viability was assessed by the amount of metabolic activity using MTT assay. […]"}, "H1299": {"tested_on": "H1299", "assay": "Cell growth by counting living cells as a function of time, H1299", "assay_type": "cell-based", "protocol": "(§2) To test the effect of farnesyl transferase inhibitor in a cell culture model, H1299 and H358 (FIG. 5B) were treated with 100 nM FTI-277 or DMSO. As a comparison, H1299 was also treated with 5 μM LDN-57414 (UCH-L1 inhibitor), which we have previously shown to increase H1299 cell proliferation (Liu et al 2003). Cell growth was quantified by counting the number of living cells as a function of time. […] The initial acceleration of cell growth in H1299, thus, may be the consequence of inhibition on UCH-L1 farnesylation. This possibility may explain the minimal clinical activity of farnesyl transferase inhibitor in treating patients with NSCLC."}, "H358": {"tested_on": "H358", "assay": "Cell growth by counting living cells as a function of time, H358", "assay_type": "cell-based", "conditions": "100 nM FTI-277, H358 does not express UCH-L1, vs DMSO control", "protocol": "as §2"}, "α-synuclein [4]": {"tested_on": "α-synuclein", "assay": "alpha-synuclein degradation assay in transfected COS-7 cells (quantitative Western blotting)", "assay_type": "cell-based", "conditions": "35 μM lactacystin 24 hours, normalized against actin, defines the 100% reference", "description": "Plasmids: C220S cDNA was generated by PCR site-specific mutagenesis. For the PCR, the 5′ primer is uchforw ([…]) (SEQ ID NO: 5), and 3′ primer is uchc220s ([…] TGCTGAGAGC) (SEQ ID NO: 6). Wt UCH-L1 served as the template. The PCR fragment was inserted into pcDNA vector. For S18YC220S mutant, S18Y UCH-L1 served as the template in PCR. For the FLAG tagged UCH-L1, the 5′ primer is FLAGuchforw ([…] GCAGCTCAAGCCGATGGAG) (SEQ ID NO: 7), and the 3′ primer is uchrev ([…]) (SEQ ID NO: 8). Wt UCH-L1 or C220S served as the template. PCR fragment was purified and inserted into pcDNA vector. For the FLAG tagged UCH-L3, the 5′ primer is L3HindIII ([…] CTG) (SEQ ID NO: 9), the 3′primer is L3XhoISAA (ATCCTCGAGCTATGCT GCAGAAAGAGCAATCGCA) (SEQ ID NO: 10). For the UCH-L3 CKAA variant, the 5′ primer is L3 HindIII and the 3′ primer is L3XhoICKAA (ATCCTCGAGCTA […]) (SEQ ID NO: 11). α-synuclein degradation assay: Liphitamine 2000 was used to transfect COS-7 cells according to the Invitrogen protocol. Transfected cells were cultured at 37° C. for 48 hours before being treated with 35 μM lactacystin or DMSO. After 24 hours of incubation, the cells were lysed with Tris buffer (50 mM Tris, 2% SDS, 0.1% NP-40), and subjected to SDS-PAGE, followed by quantitative Western blotting. […]"}, "[5]": {"target": "the molecule itself", "assay": "self-oligomerisation of purified protein, method not described"}, "[6]": {"conditions": "compared to cells treated with DMSO"}}, "note": "“Also recorded” adds a separate entry of the source.", "data": [{"molecule": "COC(=O)[C@H](CCSC)NC(=O)c1ccc(NC[C@@H](N)CS)cc1-c1ccccc1", "note": "[FTI-277]", "values": [{"measurement": "total amount of UCH-L1", "setting": "UCH-L1 [1]", "result": "reduced"}, {"measurement": "amount of cytosolic UCH-L1", "setting": "UCH-L1 [1]; [6]", "result": "without affecting"}, {"measurement": "amount of membrane bound UCH-L1", "setting": "UCH-L1 [1]; [6]", "result": "significant decrease; also recorded: decreased; also recorded: reducing"}, {"measurement": "UCH-L1 rate of turnover", "setting": "UCH-L1 [2]", "result": "increased"}, {"measurement": "alpha-synuclein toxicity (loss of cells / viability)", "setting": "SH-SY5Y cells", "result": "significantly decreased loss of cells; also recorded: rescued; also recorded: protects"}, {"measurement": "amount of alpha-synuclein", "setting": "α-synuclein [3]", "result": "reduced; also recorded: reducing"}, {"measurement": "initial cell growth in H1299", "setting": "H1299; 100 nM FTI-277, vs DMSO control", "result": "promoted initial cell growth"}, {"measurement": "H1299 cell growth after 24 hours of compound treatment", "setting": "H1299; 100 nM FTI-277 or 5 μM LDN-57414", "result": "began to show toxicity"}, {"measurement": "initial cell growth in H358", "setting": "H358", "result": "induced initial toxicity"}]}, {"molecule": "CC(=O)N[C@@H](CSC(=O)[C@]1([C@@H](O)C(C)C)NC(=O)[C@H](C)[C@@H]1O)C(=O)O", "note": "[lactacysteine]", "values": [{"measurement": "accumulation of alpha-synuclein", "setting": "α-synuclein [4]", "result": 100, "unit": "%"}]}, {"molecule": "UCH-L1 C220S mutant (S18 background), expressed in E. coli and purified (enzyme, UniProt P09936 1-223, looked up, also called C220S variant) MQLKPMEINPEMLNKVLSRLGVAGQWRFVDVLGLEEESLGSVPAPACALLLLFPLTAQHENFRKKQIEELKGQEVSPKVYFMKQTIGNSCGTIGLIHAVANNQDKLGFEDGSVLKQFLSETEKMSPEDRAKCFEKNEAIQAAHDAVAQEGQCRVDDKVNFHFILFNNVDGHLYELDGRMPFPVNHGASSEDTLLKDAAKVCREFTEREQGEVRFSAVALSKAA", "values": [{"measurement": "binding result", "setting": "[5]", "result": "binds"}]}]}
